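48-hour exposure; five concentrations; linearly interpolated endpoints. Here, GI50 denotes the concentration required for 50% inhibition of growth. The concentration for full growth arrest is given as TGI.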
Legend:
Assay in all cases: NCI-60 cell line screen, 48 h
[1] = test system: K-562 leukemia
[2] = test system: MDA-MB-435
[3] = test system: OVCAR-5 ovarian
[4] = test system: TK-10 renal
[5] = test system: CAKI-1 renal
[6] = test system: A498 renal
[7] = test system: HT29 colon
[8] = test system: RXF 393 renal
[9] = test system: NCI-H23 lung
[10] = test system: SNB-75 CNS

## [Cu+2].[NH-]C(CC(=O)O)C(=O)O.[NH-]C(CC(=O)O)C(=O)O (centres undefined)
[1]
  GI50: > 100 µM
  TGI: > 100 µM
[2]
  GI50: 40.2 µM
  TGI: > 100 µM
[3]
  GI50: > 100 µM
  TGI: > 100 µM
[4]
  GI50: > 100 µM
  TGI: > 100 µM
[5]
  GI50: > 100 µM
  TGI: > 100 µM
[6]
  GI50: 36.7 µM
  TGI: > 100 µM
[7]
  GI50: > 100 µM
  TGI: > 100 µM
[8]
  GI50: > 100 µM
  TGI: > 100 µM
[9]
  GI50: > 100 µM
  TGI: > 100 µM
[10]
  GI50: > 100 µM
  TGI: > 100 µM

## NC(N)=Nc1ccc(/C=C2\C=Cc3ccccc32)cc1
[1]
  GI50: 2.66 µM
  TGI: > 22 µM
[2]
  GI50: 1.84 µM
  TGI: 3.92 µM
[3]
  GI50: 2.61 µM
  TGI: 6.77 µM
[4]
  GI50: 2.02 µM
  TGI: 4.04 µM
[5]
  GI50: 2.49 µM
  TGI: 8.67 µM
[6]
  GI50: 4.83 µM
  TGI: 19.2 µM
[7]
  GI50: 2.05 µM
  TGI: 4.11 µM
[8]
  GI50: 2.14 µM
  TGI: 5.52 µM
[9]
  GI50: 2.95 µM
  TGI: 10.4 µM
[10]
  GI50: 2.22 µM
  TGI: 8.99 µM

## CC(=O)N[C@@H](Cc1ccc(OP(=O)(O)O)cc1)C(=O)N[C@H]1CCC(=O)N2CCC[C@@H](C(=O)NCc3ccccc3)N2C1=O
[1]
  GI50: > 25 µM
  TGI: > 25 µM
[2]
  GI50: > 25 µM
  TGI: > 25 µM
[3]
  GI50: > 25 µM
  TGI: > 25 µM
[4]
  GI50: > 25 µM
  TGI: > 25 µM
[5]
  GI50: > 25 µM
  TGI: > 25 µM
[6]
  GI50: > 25 µM
  TGI: > 25 µM
[7]
  GI50: > 25 µM
  TGI: > 25 µM
[8]
  GI50: > 25 µM
  TGI: > 25 µM
[9]
  GI50: > 25 µM
  TGI: > 25 µM
[10]
  GI50: > 25 µM
  TGI: > 25 µM

## CC(C)C(=O)c1c(C(F)(F)F)n([O-])c2ccccc2[n+]1=O
[1]
  GI50: 0.508 µM
  TGI: > 27.1 µM
[2]
  GI50: 1.07 µM
  TGI: 3.45 µM
[3]
  GI50: 2.7 µM
  TGI: 6.25 µM
[4]
  GI50: 0.59 µM
  TGI: 2.07 µM
[5]
  GI50: 0.689 µM
  TGI: 2.1 µM
[6]
  GI50: 7.34 µM
  TGI: 16.2 µM
[7]
  GI50: 9.43 µM
  TGI: > 36.4 µM
[8]
  GI50: 2.35 µM
  TGI: 13 µM
[9]
  GI50: 1.67 µM
  TGI: 3.41 µM
[10]
  GI50: 15.2 µM
  TGI: > 42.7 µM

## Cc1ccccc1C(C(=O)NC1CCCCC1)N(C(=O)CNc1ncccc1F)c1cccc(F)c1 (centres undefined)
[1]
  GI50: > 100 µM
  TGI: > 100 µM
[2]
  GI50: > 100 µM
  TGI: > 100 µM
[3]
  GI50: > 100 µM
  TGI: > 100 µM
[4]
  GI50: > 56.4 µM
  TGI: > 100 µM
[5]
  GI50: > 53.1 µM
  TGI: > 100 µM
[6]
  GI50: 49.6 µM
  TGI: > 100 µM
[7]
  GI50: > 100 µM
  TGI: > 100 µM
[8]
  GI50: 4.72 µM
  TGI: 20.1 µM
[9]
  GI50: > 57.8 µM
  TGI: > 100 µM
[10]
  GI50: 6.14 µM
  TGI: 24.6 µM

## COc1ccc(NC(=O)c2ccc(NC3=C(Cl)C(=O)N(Cc4ccccc4)C3=O)cc2)c(OC)c1
[1]
  GI50: 8.18 µM
  TGI: 43 µM
[2]
  GI50: 16.7 µM
  TGI: 48.9 µM
[3]
  GI50: 49.3 µM
  TGI: > 100 µM
[4]
  GI50: 22.8 µM
  TGI: > 100 µM
[5]
  GI50: 0.637 µM
  TGI: 1.96 µM
[6]
  GI50: 61.1 µM
  TGI: > 100 µM
[7]
  GI50: 41.5 µM
  TGI: > 100 µM
[8]
  GI50: 50.2 µM
  TGI: > 100 µM
[9]
  GI50: 14.3 µM
  TGI: 29.2 µM
[10]
  GI50: 47.1 µM
  TGI: > 100 µM

## O=C(O)c1cn(C2CC2)c2cc(N3CCN(Cc4c(O)ccc5ccccc45)CC3)c(F)cc2c1=O
[1]
  GI50: > 100 µM
  TGI: > 100 µM
[2]
  GI50: 4.18 µM
  TGI: > 100 µM
[3]
  GI50: > 100 µM
  TGI: > 100 µM
[4]
  GI50: 2.66 µM
  TGI: 8.38 µM
[5]
  GI50: 3.29 µM
  TGI: > 100 µM
[6]
  GI50: 1.48 µM
  TGI: 4.47 µM
[7]
  GI50: 8.5 µM
  TGI: > 100 µM
[8]
  GI50: 2.68 µM
  TGI: 8.34 µM
[9]
  GI50: 4.63 µM
  TGI: > 100 µM
[10]
  GI50: 1.94 µM
  TGI: 17.8 µM

## N#Cc1c(N/N=C\c2ccc(Cl)cc2)nc(N)nc1N1CCOCC1
[1]
  GI50: 13 µM
  TGI: 32.3 µM
[2]
  GI50: 35 µM
  TGI: > 100 µM
[3]
  GI50: > 100 µM
  TGI: > 100 µM
[4]
  GI50: 40.1 µM
  TGI: > 100 µM
[5]
  GI50: 43.3 µM
  TGI: > 100 µM
[6]
  GI50: 25.5 µM
  TGI: 69.2 µM
[7]
  GI50: 26.7 µM
  TGI: > 100 µM
[8]
  GI50: 15 µM
  TGI: > 100 µM
[9]
  GI50: 87.8 µM
  TGI: > 100 µM
[10]
  GI50: 57.3 µM
  TGI: > 100 µM

## COc1ccc(OC)c(/C=C/c2ccnc3ccccc23)c1
[1]
  TGI: 2.06 µM
[2]
  TGI: 0.331 µM
[3]
  TGI: 16 µM
[4]
  TGI: 16 µM
[5]
  TGI: 18.1 µM
[6]
  TGI: 3.8 µM
[7]
  TGI: 2.35 µM
[8]
  TGI: 2.72 µM
[9]
  TGI: 5.72 µM
[10]
  TGI: 0.977 µM

## Oc1ccccc1/C=N\NC(=S)N/N=C/c1ccccc1O
[1]
  GI50: 1.59 µM
  TGI: > 100 µM
[2]
  GI50: 1.97 µM
  TGI: 25.3 µM
[3]
  GI50: 9.38 µM
  TGI: > 100 µM
[4]
  GI50: 4.62 µM
  TGI: 53.3 µM
[5]
  GI50: 0.548 µM
  TGI: 3.94 µM
[6]
  GI50: 3.66 µM
  TGI: 21.9 µM
[7]
  GI50: 6.63 µM
  TGI: 48.8 µM
[8]
  GI50: 5.72 µM
  TGI: > 100 µM
[9]
  GI50: 3.91 µM
  TGI: > 100 µM
[10]
  GI50: 2.24 µM
  TGI: 38.2 µM

## CC(C)Cc1ccc(C(C)C(=O)NCc2ccc(Cn3c(=O)sn(CCCI)c3=O)cc2)cc1 (centres undefined)
[1]
  GI50: 0.388 µM
  TGI: > 100 µM
[2]
  GI50: 0.485 µM
  TGI: 1.77 µM
[3]
  GI50: 1.39 µM
  TGI: 2.84 µM
[4]
  GI50: 0.373 µM
  TGI: 0.95 µM
[5]
  GI50: 0.404 µM
  TGI: 1.61 µM
[6]
  GI50: 1.43 µM
  TGI: 2.75 µM
[7]
  GI50: 0.238 µM
  TGI: 0.75 µM
[8]
  GI50: 0.326 µM
  TGI: 1.33 µM
[9]
  GI50: 1.32 µM
  TGI: 2.79 µM
[10]
  GI50: 0.558 µM
  TGI: 1.96 µM

## CN(C)Cc1c(C(=O)NCCOc2ccc(C(=O)NO)cc2)oc2ccccc12
[1]
  GI50: 0.307 µM
  TGI: > 100 µM
[2]
  GI50: 0.174 µM
  TGI: 0.679 µM
[3]
  GI50: 0.115 µM
  TGI: 1.3 µM
[4]
  GI50: 0.185 µM
  TGI: 0.88 µM
[5]
  GI50: 0.311 µM
  TGI: 1.57 µM
[6]
  GI50: 0.126 µM
  TGI: 0.411 µM
[7]
  GI50: 0.205 µM
  TGI: 1.36 µM
[8]
  GI50: 0.197 µM
  TGI: 0.643 µM
[9]
  GI50: 0.267 µM
  TGI: 2.06 µM
[10]
  GI50: 0.153 µM
  TGI: > 40.7 µM

## C=CC(=O)N1CC[C@H](n2nc(C#Cc3cc(OC)cc(OC)c3)c3c(N)ncnc32)C1
[1]
  GI50: 13.2 µM
  TGI: > 100 µM
[2]
  GI50: 10.6 µM
  TGI: > 100 µM
[3]
  GI50: 62.3 µM
  TGI: > 100 µM
[4]
  GI50: 4.03 µM
  TGI: > 100 µM
[5]
  GI50: 7.06 µM
  TGI: > 100 µM
[6]
  TGI: 1.6 µM
[7]
  GI50: 13.9 µM
  TGI: > 100 µM
[8]
  GI50: 1.06 µM
  TGI: 4.48 µM
[9]
  GI50: 17.5 µM
  TGI: > 100 µM
[10]
  GI50: 0.343 µM
  TGI: 6.91 µM
